According to PubChem BioAssay AID1963983 (Molecular Pharmacology Branch, DTP, NCI, 2024):

Tested on: 186277-243-T-J2-PDC multi-cell spheroid viability
Test: Anticancer human tumor 186277-243-T-J2-PDC patient-derived colon adenocarcinoma cell line growth inhibition [PI3K]
Conditions: for IC50: curve of first compound; for viability, T/C: stronger effect = lower value
Outline: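 Tumor cells grown as multi-cell spheroids with HUVEC endothelial cells and MSC fibroblast-like stroma were treated with targeted agents combined with inavolisib, alpelisib, duvelisib or copanlisib. Doses fell in half-log steps from near clinical Cmax, else from 10 microM. Viability was measured.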

[1] = second compound 0.0316 µM, first compound 0.0316 µM
[2] = second compound 0.0316 µM, first compound 0.1 µM
[3] = second compound 0.0316 µM, first compound 0.316 µM
[4] = second compound 0.0316 µM, first compound 1 µM
[5] = second compound 0.0316 µM, first compound 3.16 µM
[6] = second compound 0.0316 µM, first compound 10 µM
[7] = second compound 0.1 µM, first compound 0.0316 µM
[8] = second compound 0.1 µM, first compound 0.1 µM
[9] = second compound 0.1 µM, first compound 0.316 µM
[10] = second compound 0.1 µM, first compound 1 µM
[11] = second compound 0.1 µM, first compound 3.16 µM
[12] = second compound 0.1 µM, first compound 10 µM
[13] = second compound 0.316 µM, first compound 0.0316 µM
[14] = second compound 0.316 µM, first compound 0.1 µM
[15] = second compound 0.316 µM, first compound 0.316 µM
[16] = second compound 0.316 µM, first compound 1 µM
[17] = second compound 0.316 µM, first compound 3.16 µM
[18] = second compound 0.316 µM, first compound 10 µM
[19] = second compound 1 µM, first compound 0.0316 µM
[20] = second compound 1 µM, first compound 0.1 µM
[21] = second compound 1 µM, first compound 0.316 µM
[22] = second compound 1 µM, first compound 1 µM
[23] = second compound 1 µM, first compound 3.16 µM
[24] = second compound 1 µM, first compound 10 µM
[25] = second compound 3.16 µM, first compound 0.0316 µM
[26] = second compound 3.16 µM, first compound 0.1 µM
[27] = second compound 3.16 µM, first compound 0.316 µM
[28] = second compound 3.16 µM, first compound 1 µM
[29] = second compound 3.16 µM, first compound 3.16 µM
[30] = second compound 3.16 µM, first compound 10 µM
[31] = second compound 10 µM, first compound 0.0316 µM
[32] = second compound 10 µM, first compound 0.1 µM
[33] = second compound 10 µM, first compound 0.316 µM
[34] = second compound 10 µM, first compound 1 µM
[35] = second compound 10 µM, first compound 3.16 µM
[36] = second compound 10 µM, first compound 10 µM
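Further: spheroids exposed to compounds for seven days before viability reading.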
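Wherever viability, T/C is given: 100% = DMSO vehicle control viability.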

**Q.** What does the source list for `CC(Cn1ccc(-c2ccc(C#N)c(Cl)c2)n1)NC(=O)c1cc(C(C)O)[nH]n1` (stereo unspecified) + CC(Nc1ncnc2nc[nH]c12)c1cc2cccc(Cl)c2c(=O)n1-c1ccccc1?
**A.** IC50 (second compound 0.0316 µM): > 10000 nM; IC50 (second compound 0.1 µM): > 10000 nM; IC50 (second compound 0.316 µM): > 10000 nM; IC50 (second compound 1 µM): > 10000 nM; IC50 (second compound 3.16 µM): > 10000 nM; IC50 (second compound 10 µM): > 10000 nM; viability, T/C [1]: 91%; viability, T/C [2]: 109%; viability, T/C [3]: 101%; viability, T/C [4]: 90.2%; viability, T/C [5]: 93.7%; viability, T/C [6]: 97.9%; viability, T/C [7]: 98.2%; viability, T/C [8]: 94.8%; viability, T/C [9]: 94.9%; viability, T/C [10]: 103%; viability, T/C [11]: 101%; viability, T/C [12]: 88.3%; viability, T/C [13]: 92.3%; viability, T/C [14]: 104%; viability, T/C [15]: 95.7%; viability, T/C [16]: 93.1%; viability, T/C [17]: 98.5%; viability, T/C [18]: 102%; viability, T/C [19]: 92.7%; viability, T/C [20]: 108%; viability, T/C [21]: 114%; viability, T/C [22]: 92.1%; viability, T/C [23]: 94.4%; viability, T/C [24]: 84.1%; viability, T/C [25]: 89.6%; viability, T/C [26]: 102%; viability, T/C [27]: 116%; viability, T/C [28]: 97.3%; viability, T/C [29]: 106%; viability, T/C [30]: 94.5%; viability, T/C [31]: 98%; viability, T/C [32]: 83.4%; viability, T/C [33]: 84.3%; viability, T/C [34]: 98.9%; viability, T/C [35]: 90.1%; viability, T/C [36]: 78.8%

**Q.** With `C[C@@H](NC(=O)c1ncnc(N)c1Cl)c1ncc(C(=O)Nc2cc(C(F)(F)F)c(Cl)cn2)s1` + Cc1nc(NC(=O)N2CCCC2C(N)=O)sc1-c1ccnc(C(C)(C)C(F)(F)F)c1 as the compound, how does the IC50 (second compound 0.0316 µM) read?
**A.** > 10000 nM

**Q.** And the IC50 (second compound 0.1 µM)?
**A.** > 10000 nM

**Q.** What about the IC50 (second compound 0.316 µM) of the same compound?
**A.** 8100 nM

**Q.** And the IC50 (second compound 1 µM)?
**A.** 4320 nM

**Q.** What about the IC50 (second compound 3.16 µM) of the same compound?
**A.** 382 nM

**Q.** What about the IC50 (second compound 10 µM) of the same compound?
**A.** < 31.6 nM

**Q.** And the viability, T/C [1]?
**A.** 87.8%

**Q.** What about the viability, T/C [2] of the same compound?
**A.** 78.3%

**Q.** What about the viability, T/C [3] of the same compound?
**A.** 101%

**Q.** And the viability, T/C [4]?
**A.** 99.5%

**Q.** What about the viability, T/C [5] of the same compound?
**A.** 102%

**Q.** What about the viability, T/C [6] of the same compound?
**A.** 78.4%

**Q.** What about the viability, T/C [7] of the same compound?
**A.** 92.9%

**Q.** What about the viability, T/C [8] of the same compound?
**A.** 90.8%

**Q.** And the viability, T/C [9]?
**A.** 93.9%

**Q.** And the viability, T/C [10]?
**A.** 108%

**Q.** What about the viability, T/C [11] of the same compound?
**A.** 99.2%

**Q.** What about the viability, T/C [12] of the same compound?
**A.** 72%

**Q.** What about the viability, T/C [13] of the same compound?
**A.** 104%

**Q.** And the viability, T/C [14]?
**A.** 107%

**Q.** What about the viability, T/C [15] of the same compound?
**A.** 105%

**Q.** And the viability, T/C [16]?
**A.** 88.1%

**Q.** What about the viability, T/C [17] of the same compound?
**A.** 85.8%

**Q.** What about the viability, T/C [18] of the same compound?
**A.** 42.1%

**Q.** And the viability, T/C [19]?
**A.** 103%

**Q.** And the viability, T/C [20]?
**A.** 88.5%

**Q.** And the viability, T/C [21]?
**A.** 102%

**Q.** And the viability, T/C [22]?
**A.** 91.2%

**Q.** What about the viability, T/C [23] of the same compound?
**A.** 62.8%

**Q.** And the viability, T/C [24]?
**A.** 15.7%

**Q.** And the viability, T/C [25]?
**A.** 77.8%

**Q.** And the viability, T/C [26]?
**A.** 65.8%

**Q.** What about the viability, T/C [27] of the same compound?
**A.** 54.9%

**Q.** And the viability, T/C [28]?
**A.** 33.3%

**Q.** And the viability, T/C [29]?
**A.** 12.9%

**Q.** And the viability, T/C [30]?
**A.** 6%

**Q.** And the viability, T/C [31]?
**A.** 18.7%

**Q.** What about the viability, T/C [32] of the same compound?
**A.** 18.9%

**Q.** And the viability, T/C [33]?
**A.** 14.2%

**Q.** And the viability, T/C [34]?
**A.** 4.89%

**Q.** What about the viability, T/C [35] of the same compound?
**A.** 5.43%

**Q.** And the viability, T/C [36]?
**A.** 0.25%

**Q.** Which IC50 (second compound 0.00316 µM) does the source give for `CC(C)n1nc(-c2ccc3oc(N)nc3c2)c2c(N)ncnc21` + CC(Nc1ccc2c(c1)OCCn1cc(N3C(=O)OCC3C(F)F)nc1-2)C(N)=O here?
**A.** 52.9 nM

**Q.** And the IC50 (second compound 0.01 µM)?
**A.** 55.2 nM

**Q.** And the IC50 (second compound 0.0316 µM)?
**A.** 47.5 nM

**Q.** And the IC50 (second compound 0.1 µM)?
**A.** 30.4 nM

**Q.** And the IC50 (second compound 0.316 µM)?
**A.** 8.51 nM

**Q.** What about the IC50 (second compound 1 µM) of the same compound?
**A.** < 0.316 nM

**Q.** And the viability, T/C (second compound 0.00316 µM, first compound 0.000316 µM)?
**A.** 90%

**Q.** And the viability, T/C (second compound 0.00316 µM, first compound 0.001 µM)?
**A.** 101%

**Q.** What about the viability, T/C (second compound 0.00316 µM, first compound 0.00316 µM) of the same compound?
**A.** 104%

**Q.** And the viability, T/C (second compound 0.00316 µM, first compound 0.01 µM)?
**A.** 93.7%

**Q.** And the viability, T/C (second compound 0.00316 µM, first compound 0.0316 µM)?
**A.** 75.1%

**Q.** What about the viability, T/C (second compound 0.00316 µM, first compound 0.1 µM) of the same compound?
**A.** 19.1%

**Q.** What about the viability, T/C (second compound 0.01 µM, first compound 0.000316 µM) of the same compound?
**A.** 116%

**Q.** And the viability, T/C (second compound 0.01 µM, first compound 0.001 µM)?
**A.** 87.5%

**Q.** And the viability, T/C (second compound 0.01 µM, first compound 0.00316 µM)?
**A.** 113%

**Q.** What about the viability, T/C (second compound 0.01 µM, first compound 0.01 µM) of the same compound?
**A.** 93.1%

**Q.** What about the viability, T/C (second compound 0.01 µM, first compound 0.0316 µM) of the same compound?
**A.** 73.5%

**Q.** What about the viability, T/C (second compound 0.01 µM, first compound 0.1 µM) of the same compound?
**A.** 25.3%

**Q.** And the viability, T/C (second compound 0.0316 µM, first compound 0.000316 µM)?
**A.** 107%

**Q.** And the viability, T/C (second compound 0.0316 µM, first compound 0.001 µM)?
**A.** 116%

**Q.** And the viability, T/C (second compound 0.0316 µM, first compound 0.00316 µM)?
**A.** 97.9%

**Q.** And the viability, T/C (second compound 0.0316 µM, first compound 0.01 µM)?
**A.** 89.9%

**Q.** And the viability, T/C [1]?
**A.** 69.7%

**Q.** And the viability, T/C [2]?
**A.** 17.5%

**Q.** What about the viability, T/C (second compound 0.1 µM, first compound 0.000316 µM) of the same compound?
**A.** 95.8%

**Q.** What about the viability, T/C (second compound 0.1 µM, first compound 0.001 µM) of the same compound?
**A.** 94.2%

**Q.** And the viability, T/C (second compound 0.1 µM, first compound 0.00316 µM)?
**A.** 92.5%

**Q.** And the viability, T/C (second compound 0.1 µM, first compound 0.01 µM)?
**A.** 82.4%

**Q.** What about the viability, T/C [7] of the same compound?
**A.** 48.8%

**Q.** What about the viability, T/C [8] of the same compound?
**A.** 8.12%

**Q.** What about the viability, T/C (second compound 0.316 µM, first compound 0.000316 µM) of the same compound?
**A.** 81.7%

**Q.** What about the viability, T/C (second compound 0.316 µM, first compound 0.001 µM) of the same compound?
**A.** 80.3%

**Q.** And the viability, T/C (second compound 0.316 µM, first compound 0.00316 µM)?
**A.** 63.5%

**Q.** And the viability, T/C (second compound 0.316 µM, first compound 0.01 µM)?
**A.** 49.7%

**Q.** What about the viability, T/C [13] of the same compound?
**A.** 22.6%

**Q.** What about the viability, T/C [14] of the same compound?
**A.** 6.29%

**Q.** And the viability, T/C (second compound 1 µM, first compound 0.000316 µM)?
**A.** 46.9%

**Q.** What about the viability, T/C (second compound 1 µM, first compound 0.001 µM) of the same compound?
**A.** 39.3%

**Q.** And the viability, T/C (second compound 1 µM, first compound 0.00316 µM)?
**A.** 37.6%

**Q.** And the viability, T/C (second compound 1 µM, first compound 0.01 µM)?
**A.** 24.3%

**Q.** What about the viability, T/C [19] of the same compound?
**A.** 8.53%

**Q.** What about the viability, T/C [20] of the same compound?
**A.** 3.88%
